{
  "source": "ChEMBL document CHEMBL1150618",
  "about": "“Isotactic polymethoxydienes from the Philippines sponge Myriastra clavosa” (J Nat Prod, 2002)",
  "data": [
    {"tested_on": "HCT-116", "assay": "Cytotoxicity against human HCT116 cells", "type": "functional, cell-based", "units": {"IC50": "µM"}, "values": [
      {"smiles": "C=CC[C@@H](C[C@@H](C[C@@H](C[C@@H](C[C@@H](C[C@@H](C[C@@H](C[C@@H](C[C@@H](C[C@H](OC)/C(C)=C/CCCCC)OC)OC)OC)OC)OC)OC)OC)OC)OC", "IC50": 75},
      {"smiles": "C=CC[C@@H](C[C@@H](C[C@@H](C[C@@H](C[C@@H](C[C@@H](C[C@@H](C[C@@H](C[C@@H](C[C@@H](C[C@H](OC)/C(C)=C/CCCCC)OC)OC)OC)OC)OC)OC)OC)OC)OC)OC", "IC50": 92},
      {"smiles": "C=CC[C@@H](C[C@@H](C[C@@H](C[C@@H](C[C@@H](C[C@@H](C[C@@H](C[C@@H](C[C@H](OC)/C(C)=C/CCCCC)OC)OC)OC)OC)OC)OC)OC)OC", "IC50": 86},
      {"smiles": "C=CC[C@@H](C[C@@H](C[C@@H](C[C@@H](C[C@@H](C[C@@H](C[C@@H](C[C@H](OC)/C(C)=C/CCCCC)OC)OC)OC)OC)OC)OC)OC", "IC50": 106},
      {"smiles": "C=CC[C@@H](C[C@@H](C[C@@H](C[C@@H](C[C@@H](C[C@@H](C[C@H](OC)/C(C)=C/CCCCC)OC)OC)OC)OC)OC)OC", "IC50": 119}
    ]}
  ]
}
